Values after ≈ are worked out from the molar mass of the structure shown. Where two headings read alike, the source gives them in different places.
Columns and labels:
[1] = test system: Escherichia coli MC4100 harboring the IMP4213 (E. coli IMP); experiment: microbe, parasite or virus in culture; type: cell-based; conditions: Escherichia coli, 22 h, read-out: MIC (μg/mL) E. coli IMP, E. coli MC4100 IMP4213, increased outer-membrane permeability; 35° C., 22 hours
Procedure, shortened: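 Ten 2-fold dilutions, from 4 μg/mL or from 0.5 μg/mL depending on protocol, are challenged with bacteria at OD600 0.0005 in Tween-80-supplemented cation-adjusted Mueller Hinton Broth. Plates incubate 22 hours at 35° C per CLSI. The E. coli IMP4213 strain has increased outer-membrane permeability.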

[2] = biological target: T1, SpsB (Staphylococcus aureus signal peptidase) (Staphylococcus aureus, UniProt P0A070); experiment: cell-based; type: biochemical; conditions: SpsB IC50, whole-cell S. aureus (USA300 background, overexpressing SpsB) as SpsB source; fluorogenic peptide substrate, kinetic read 30 min
T1 construct: This assay uses a suspension of Staphylococcus aureus cells as a source of SpsB instead of recombinant SpsB protein; endogenous in cells; host or cells: S. aureus, USA300 background, overexpressing SpsB (whole-cell suspension from frozen pellets)
Procedure, shortened: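 Cleavage of an internally quenched (Dabcyl)βAla-KPAKAAE(Edans) peptide, added as 20 μM solution mixed 1:1 with cells, was followed for 30 min at 340/490 nm. SpsB came from a suspension of SpsB-overexpressing USA300 S. aureus in Tween-80-containing PBS buffer. Slopes plotted against 3-fold compound dilutions gave IC50.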

[3] = test system: Methicillin Resistant Staphylococcus aureus strain USA 300, NRS384; experiment: Minimum inhibitory concentration, broth micro-dilution (CLSI), S. aureus; type: cell-based; conditions: Staphylococcus aureus, MRSA / NRS 384 / USA300, 22 h, 35° C., 22 hours
Procedure, shortened: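 Colonies grown 20 hours at 35° C were suspended in cation-adjusted Mueller Hinton Broth with 0.002% Tween-80. Cells were then added to 2-fold compound dilutions starting at 4 or 0.5 μg/mL, at OD600 0.0005.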

[4] = test system: Escherichia coli ATCC 25922; experiment: Minimum inhibitory concentration, broth micro-dilution (CLSI), E. coli; type: cell-based; conditions: Escherichia coli, ATCC25922, 22 h, 35° C., 22 hours
[5] = MRSA USA 300 NRS384, read-out: MIC (μg/mL) S. aureus
[6] = E. coli ATCC 25922, read-out: MIC (μg/mL) E. coli
[7] = read-out: MIC (μg/mL) S. aureus, MRSA USA 300 NRS384
[8] = read-out: MIC (μg/mL) E. coli, E. coli ATCC 25922

T1 sequence (P0A070 whole entry): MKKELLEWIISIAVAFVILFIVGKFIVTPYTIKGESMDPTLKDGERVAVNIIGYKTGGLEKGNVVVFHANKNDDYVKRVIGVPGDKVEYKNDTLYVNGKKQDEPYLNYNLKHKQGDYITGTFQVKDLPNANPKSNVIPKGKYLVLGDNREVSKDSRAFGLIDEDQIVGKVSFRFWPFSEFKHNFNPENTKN

SMILES | MIC [1] | IC50 [2] | MIC [3, 5] | MIC [4, 6] | MIC [3, 7] | MIC [4, 8]
CCCCCCCCc1ccc(C(=O)N[C@@H](CCN)C(=O)N(C)[C@@H]2C(=O)N[C@@H](C)C(=O)N[C@H](C(=O)NCC#N)Cc3ccc(OCCN)c(c3)-c3cc2ccc3OCCN)c(C(F)F)c1 [Compound 221] | 0.023 µg/mL (≈ 0.0254 µM) | 1.3 nM | 0.063 µg/mL (≈ 0.0697 µM) | 0.19 µg/mL (≈ 0.21 µM) | – | –
CCCCCCCCc1ccc(C(=O)N[C@@H](CCN)C(=O)N(C)[C@@H]2C(=O)N[C@@H](C)C(=O)N[C@H](C(=O)NCC#N)Cc3ccc(OCCN)c(c3)-c3cc2ccc3OCCN)c(N)c1 [Compound 223] | 0.016 µg/mL (≈ 0.0184 µM) | 1.5 nM | 0.031 µg/mL (≈ 0.0357 µM) | 0.25 µg/mL (≈ 0.288 µM) | – | –
CCCCCCCc1cc(Cl)c(C(=O)N[C@@H](CCN)C(=O)N(C)[C@@H]2C(=O)N[C@@H](C)C(=O)N[C@H](C(=O)NCC#N)Cc3ccc(OCCN)c(c3)-c3cc2ccc3OCCN)c(Cl)c1 [Compound 226] | 0.012 µg/mL (≈ 0.0132 µM) | 0.88 nM | 0.094 µg/mL (≈ 0.103 µM) | 0.38 µg/mL (≈ 0.418 µM) | – | –
CCCCc1ccc(C(=O)N[C@@H](CCN)C(=O)N(C)[C@@H]2C(=O)N[C@@H](C)C(=O)N[C@H](C(=O)NCC#N)Cc3ccc(OCCN)c(c3)-c3cc2ccc3OCCN)cn1 [Compound 227] | 0.38 µg/mL (≈ 0.476 µM) | 5.5 nM | 1.5 µg/mL (≈ 1.88 µM) | 16 µg/mL (≈ 20 µM) | – | –
CCCCCc1ccc(C(=O)N[C@@H](CCN)C(=O)N(C)[C@@H]2C(=O)N[C@@H](C)C(=O)N[C@H](C(=O)NCC#N)Cc3ccc(OCCN)c(c3)-c3cc2ccc3OCCN)c(C2CC2)c1 [Compound 229] | 0.016 µg/mL (≈ 0.0188 µM) | 0.92 nM | 0.047 µg/mL (≈ 0.0552 µM) | 1.5 µg/mL (≈ 1.76 µM) | – | –
CCCCc1cc(C)c(C(=O)N[C@@H](CCCN)C(=O)N(C)[C@@H]2C(=O)N[C@@H](C)C(=O)N[C@H](C(=O)NCC#N)Cc3ccc(OCCN)c(c3)-c3cc2ccc3OCCN)c(C)c1 [Compound 230] | 0.031 µg/mL (≈ 0.0369 µM) | 1.3 nM | 0.38 µg/mL (≈ 0.452 µM) | 4 µg/mL (≈ 4.76 µM) | – | –
CCCCCCCCCCCC(=O)N[C@@H](CO)C(=O)N(C)[C@@H]1C(=O)N[C@@H](C)C(=O)N[C@H](C(=O)NCC#N)Cc2ccc(OCCN)c(c2)-c2cc1ccc2OCCN [Compound 231] | 0.063 µg/mL (≈ 0.0781 µM) | 0.57 nM | 0.13 µg/mL (≈ 0.161 µM) | 8 µg/mL (≈ 9.91 µM) | – | –
CCCCCCCCCC(=O)N[C@@H](CO)C(=O)N(C)[C@@H]1C(=O)N[C@@H](C)C(=O)N[C@H](C(=O)NCC#N)Cc2ccc(OCCN)c(c2)-c2cc1ccc2OCCN [Compound 232] | 0.25 µg/mL (≈ 0.321 µM) | 2.4 nM | 1.5 µg/mL (≈ 1.93 µM) | > 64 µg/mL | – | –
C[C@@H]1NC(=O)[C@@H](N(C)C(=O)[C@H](CO)NC(=O)c2ccc(-c3ccc(Cl)cc3)cc2)c2ccc(OCCN)c(c2)-c2cc(ccc2OCCN)C[C@@H](C(=O)NCC#N)NC1=O [Compound 233] | 0.13 µg/mL (≈ 0.155 µM) | 4 nM | – | – | 0.5 µg/mL (≈ 0.596 µM) | 32 µg/mL (≈ 38.1 µM)
C[C@@H]1NC(=O)[C@@H](N(C)C(=O)[C@H](CO)NC(=O)c2cnc(-c3ccc(Cl)cc3)nc2)c2ccc(OCCN)c(c2)-c2cc(ccc2OCCN)C[C@@H](C(=O)NCC#N)NC1=O [Compound 234] | 0.25 µg/mL (≈ 0.297 µM) | 3.9 nM | – | – | 1 µg/mL (≈ 1.19 µM) | 32 µg/mL (≈ 38 µM)
CCCCCCCCc1ccc(C(=O)N[C@@H](CO)C(=O)N(C)[C@@H]2C(=O)N[C@@H](C)C(=O)N[C@H](C(=O)NCC#N)Cc3ccc(OCCN)c(c3)-c3cc2ccc3OCCN)c(C)c1 [Compound 235] | 0.012 µg/mL (≈ 0.014 µM) | 0.98 nM | 0.094 µg/mL (≈ 0.11 µM) | 1 µg/mL (≈ 1.17 µM) | – | –
CCCCCCCCCC(=O)N[C@@H](CC(N)=O)C(=O)N(C)[C@@H]1C(=O)N[C@@H](C)C(=O)N[C@H](C(=O)NCC#N)Cc2ccc(OCCN)c(c2)-c2cc1ccc2OCCN [Compound 236] | 1.5 µg/mL (≈ 1.86 µM) | 1.5 nM | 1 µg/mL (≈ 1.24 µM) | > 64 µg/mL | – | –
CCCCCCc1ccc(C(=O)N[C@@H](CC(N)=O)C(=O)N(C)[C@@H]2C(=O)N[C@@H](C)C(=O)N[C@H](C(=O)NCC#N)Cc3ccc(OCCN)c(c3)-c3cc2ccc3OCCN)c(C)c1 [Compound 237] | 0.094 µg/mL (≈ 0.11 µM) | 1.1 nM | 0.13 µg/mL (≈ 0.152 µM) | 16 µg/mL (≈ 18.7 µM) | – | –
CCCCCCCCc1ccc(C(=O)N[C@@H](CC(N)=O)C(=O)N(C)[C@@H]2C(=O)N[C@@H](C)C(=O)N[C@H](C(=O)NCC#N)Cc3ccc(OCCN)c(c3)-c3cc2ccc3OCCN)c(C)c1 [Compound 239] | 0.094 µg/mL (≈ 0.107 µM) | 0.74 nM | 0.047 µg/mL (≈ 0.0533 µM) | 3 µg/mL (≈ 3.4 µM) | – | –
CCCCCCCCCCCC(=O)N[C@@H](C)C(=O)N(C)[C@@H]1C(=O)N[C@@H](C)C(=O)N[C@H](C(=O)NCC#N)Cc2ccc(OCCN)c(c2)-c2cc1ccc2OCCN [Compound 241] | 0.063 µg/mL (≈ 0.0796 µM) | 1.4 nM | 0.13 µg/mL (≈ 0.164 µM) | 6 µg/mL (≈ 7.59 µM) | – | –
CCCCCCCCc1ccc(C(=O)N[C@@H](C)C(=O)N(C)[C@@H]2C(=O)N[C@@H](C)C(=O)N[C@H](C(=O)NCC#N)Cc3ccc(OCCN)c(c3)-c3cc2ccc3OCCN)c(C)c1 [Compound 243] | 0.031 µg/mL (≈ 0.0369 µM) | 1.3 nM | 0.094 µg/mL (≈ 0.112 µM) | 1.5 µg/mL (≈ 1.79 µM) | – | –
CCCCCCCCCCCC(=O)N[C@@H](CCC(N)=O)C(=O)N(C)[C@@H]1C(=O)N[C@@H](C)C(=O)N[C@H](C(=O)NCC#N)Cc2ccc(OCCN)c(c2)-c2cc1ccc2OCCN [Compound 244] | 0.19 µg/mL (≈ 0.224 µM) | 1 nM | 0.13 µg/mL (≈ 0.153 µM) | 48 µg/mL (≈ 56.6 µM) | – | –
CCCCc1ccc(C(=O)N[C@@H](CCC(N)=O)C(=O)N(C)[C@@H]2C(=O)N[C@@H](C)C(=O)N[C@H](C(=O)NCC#N)Cc3ccc(OCCN)c(c3)-c3cc2ccc3OCCN)c(C)c1 [Compound 245] | 0.38 µg/mL (≈ 0.452 µM) | 6.3 nM | 1 µg/mL (≈ 1.19 µM) | > 64 µg/mL | – | –
CCCCCCc1ccc(C(=O)N[C@@H](CCC(N)=O)C(=O)N(C)[C@@H]2C(=O)N[C@@H](C)C(=O)N[C@H](C(=O)NCC#N)Cc3ccc(OCCN)c(c3)-c3cc2ccc3OCCN)c(C)c1 [Compound 246] | 0.063 µg/mL (≈ 0.0726 µM) | 1.1 nM | 0.13 µg/mL (≈ 0.15 µM) | 16 µg/mL (≈ 18.4 µM) | – | –
CCCCc1ccc(-c2ccc(C(=O)N[C@@H](CO)C(=O)N(C)[C@@H]3C(=O)N[C@@H](C)C(=O)N[C@H](C(=O)NCC#N)Cc4ccc(OCCN)c(c4)-c4cc3ccc4OCCN)cc2)cc1 [Compound 249] | 0.012 µg/mL (≈ 0.0139 µM) | 1.2 nM | 0.13 µg/mL (≈ 0.151 µM) | 0.69 µg/mL (≈ 0.801 µM) | – | –
C[C@@H]1NC(=O)[C@@H](N(C)C(=O)[C@H](CO)NC(=O)c2ccc(-c3ccc(Cl)cc3)nc2)c2ccc(OCCN)c(c2)-c2cc(ccc2OCCN)C[C@@H](C(=O)NCC#N)NC1=O [Compound 250] | 0.25 µg/mL (≈ 0.297 µM) | 7 nM | – | – | 1 µg/mL (≈ 1.19 µM) | 64 µg/mL (≈ 76.2 µM)
CCCCCCCCCCCC(=O)N[C@@H](CCC(=O)O)C(=O)N(C)[C@@H]1C(=O)N[C@@H](C)C(=O)N[C@H](C(=O)NCC#N)Cc2ccc(OCCN)c(c2)-c2cc1ccc2OCCN [Compound 253] | 2 µg/mL (≈ 2.36 µM) | 12 nM | 2 µg/mL (≈ 2.36 µM) | > 64 µg/mL | – | –
CCCCCCCCCC(=O)N[C@@H](CCSC)C(=O)N(C)[C@@H]1C(=O)N[C@@H](C)C(=O)N[C@H](C(=O)NCC#N)Cc2ccc(OCCN)c(c2)-c2cc1ccc2OCCN [Compound 254] | 0.5 µg/mL (≈ 0.607 µM) | 1.6 nM | 0.5 µg/mL (≈ 0.607 µM) | 48 µg/mL (≈ 58.3 µM) | – | –
CCCCCCCCCCCC(=O)N[C@H](C(=O)N(C)[C@@H]1C(=O)N[C@@H](C)C(=O)N[C@H](C(=O)NCC#N)Cc2ccc(OCCN)c(c2)-c2cc1ccc2OCCN)[C@@H](C)O [Compound 256] | 0.094 µg/mL (≈ 0.114 µM) | 0.8 nM | 0.19 µg/mL (≈ 0.231 µM) | 16 µg/mL (≈ 19.5 µM) | – | –

From US20180327367A1, “MACROCYCLIC BROAD SPECTRUM ANTIBIOTICS” (priority 2015, published 2018)
